Assay results: patent publication US10047096B2, “Substituted pyridobenzodiazepinone-derivatives and use thereof” (Bayer Pharma Aktiengesellschaft, priority 2014, dated 2018)
pIC50: −log10 of the molar value. Where a name gives a salt, the structure may show the parent alone. Read-outs that look alike come from different tables or passages of the source.

Molecular target: human PDGFRβ (Homo sapiens (Human), UniProt P09619)
Assay: PDGFRβ kinase assay (PDGFRβ-HTRF)
Type: biochemical
Description: The PDGFRβ-inhibitory activity of the inventive compounds was determined in the PDGFRβ-HTRF assay described hereinafter.
The kinase used was a recombinant fusion protein composed of N-terminal GST and a C-terminal fragment of human PDGFRβ (amino acids R561-L1106), expressed in baculovirus-infected insect cells (Sf9) and purified by affinity chromatography (from ProQinase GmbH, Freiburg, Germany). The substrate used for the kinase reaction was biotinylated poly-Glu,Tyr (4:1) copolymer (from Cisbio Bioassays, Codolet, France).
For the assay, 50 nl of a 100-fold concentrated solution of the test substance in DMSO was pipetted into a black “low-volume 384 well” microtitre plate (from Greiner Bio-One, Frickenhausen, Germany), then 2 μl of a solution of PDGFRβ in assay buffer [50 mM HEPES/NaOH pH 7.5, 10 mM MgCl2, 2.5 mM dithiothreitol, 0.01% (v/v) Triton-X100 (from Sigma)] was added and the mixture was incubated for 15 min, in order to enable preliminary binding of the substance to the enzyme before the kinase reaction. […] The resulting mixture was incubated at 22° C. for 1 h to allow formation of a complex of the biotinylated phosphorylated substrate and the detection reagents.
Subsequently, the amount of the phosphorylated substrate was evaluated by measuring the resonance energy transfer from the PT66-Eu chelate to the streptavidin-XL665. […] The IC50 values were calculated by a 4-parameter fit.

[1] = 10 μM ATP, some mean values from multiple determinations

human PDGFRβ, sequence (P09619 561-1106): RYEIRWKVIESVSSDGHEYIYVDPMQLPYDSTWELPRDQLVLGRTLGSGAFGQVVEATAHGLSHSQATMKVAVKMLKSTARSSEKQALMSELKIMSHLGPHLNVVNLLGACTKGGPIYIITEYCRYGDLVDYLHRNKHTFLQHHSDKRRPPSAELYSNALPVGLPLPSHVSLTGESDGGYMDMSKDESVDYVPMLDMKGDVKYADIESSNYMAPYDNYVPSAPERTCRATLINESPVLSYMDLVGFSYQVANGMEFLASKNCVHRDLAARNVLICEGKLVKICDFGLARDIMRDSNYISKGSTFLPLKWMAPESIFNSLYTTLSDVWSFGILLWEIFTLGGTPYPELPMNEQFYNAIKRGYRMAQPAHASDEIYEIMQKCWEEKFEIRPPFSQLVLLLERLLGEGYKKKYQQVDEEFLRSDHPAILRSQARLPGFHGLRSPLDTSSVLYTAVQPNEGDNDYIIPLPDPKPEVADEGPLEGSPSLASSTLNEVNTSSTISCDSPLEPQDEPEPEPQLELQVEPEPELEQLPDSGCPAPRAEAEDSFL

| Structure (SMILES) | pIC50 [1] | further results |
| --- | --- | --- |
| COC1CCCN(Cc2ccc3c(c2)NC(=O)c2c(Nc4cc(O)c(C)cc4F)ccnc2N3)C1 (racemic) [Example 66, rac-4-[(2-Fluoro-5-hydroxy-4-methylphenyl)amino]-8-[(3-methoxypiperidin-1-yl)methyl]-6,11-dihydro-5H-pyrido[2,3-b][1,5]benzodiazepin-5-one] | 8.43 | – |
| Cc1ccc(O)cc1Nc1ccnc2c1C(=O)Nc1cc(CNCC3CNC(=O)C3)ccc1N2 (stereo not shown) [Example 130] | 8.64 | – |
| Cc1cc(F)c(Nc2ccnc3c2C(=O)Nc2cc(CNC4CC(OC(C)C)C4)ccc2N3)cc1O (stereo not shown) [Example 190, 4-[(2-Fluoro-5-hydroxy-4-methylphenyl)amino]-8-{[(3-isopropoxycyclobutyl)amino]methyl}-6,11-dihydro-5H-pyrido[2,3-b][1,5]benzodiazepin-5-one] | 8.91 | – |
| Cc1ccc(O)cc1Nc1ccnc2c1C(=O)Nc1cc(CNCCOCC3CCCO3)ccc1N2 (stereo not shown) [Example 133] | 8.12 | – |
| Cc1cc(F)c(Nc2ccnc3c2C(=O)Nc2cc(CN4CCC(C)(C)CC4)ccc2N3)cc1O [Example 56, 8-[(4,4-Dimethylpiperidin-1-yl)methyl]-4-[(2-fluoro-5-hydroxy-4-methylphenyl)amino]-6,11-dihydro-5H-pyrido[2,3-b][1,5]benzodiazepin-5-one] | 8.83 | – |
| Cc1ccc(O)cc1Nc1ccnc2c1C(=O)Nc1cc(CNCCCOC(C)C)ccc1N2 [Example 149] | 8.76 | – |
| Cc1cc(F)c(Nc2ccnc3c2C(=O)Nc2cc(CN(C)CCN(C)C)ccc2N3)cc1O [Example 203, 8-({[2-(Dimethylamino)ethyl](methyl)amino}methyl)-4-[(2-fluoro-5-hydroxy-4-methylphenyl)amino]-6,11-dihydro-5H-pyrido[2,3-b][1,5]benzodiazepin-5-one] | 8.73 | – |
| Cc1ccc(O)cc1Nc1ccnc2c1C(=O)Nc1cc(CNCc3ccc(F)cc3)ccc1N2 [Example 119] | 8.72 | – |
| Cc1ccc(O)cc1Nc1ccnc2c1C(=O)Nc1cc(CNC(C)(C)CN3CCCC3)ccc1N2 [Example 131] | 8.69 | – |
| Cc1ccc(O)cc1Nc1ccnc2c1C(=O)Nc1cc(CNCc3cccnc3)ccc1N2 [Example 146] | 8.12 | – |
| Cc1ccc(O)cc1Nc1ccnc2c1C(=O)Nc1cc(CN3CCOCC3)ccc1N2 [Example 41, 4-[(5-Hydroxy-2-methylphenyl)amino]-8-(morpholin-4-ylmethyl)-6,11-dihydro-5H-pyrido[2,3-b][1,5]benzodiazepin-5-one formic acid salt] | – | pIC50: 8.43 |
| Cc1cc(F)c(Nc2ccnc3c2C(=O)Nc2cc(CNC4CCCC4)ccc2N3)cc1O [Example 34, 8-[(Cyclopentylamino)methyl]-4-[(2-fluoro-5-hydroxy-4-methylphenyl)amino]-6,11-dihydro-5H-pyrido[2,3-b][1,5]benzodiazepin-5-one acetic acid salt] | – | pIC50 (10 μM ATP, some mean values from multiple determinations, acetic acid salt): 8.30 |
| CCCC1CCN(Cc2ccc3c(c2)NC(=O)c2c(Nc4cc(O)c(C)cc4F)ccnc2N3)CC1 [Example 54, 4-[(2-Fluoro-5-hydroxy-4-methylphenyl)amino]-8-[(4-propylpiperidin-1-yl)methyl]-6,11-dihydro-5H-pyrido[2,3-b][1,5]benzodiazepin-5-one] | 8.19 | – |
| CCCOC1CCCN(Cc2ccc3c(c2)NC(=O)c2c(Nc4cc(O)c(C)cc4F)ccnc2N3)C1 (racemic) [Example 68, rac-4-[(2-Fluoro-5-hydroxy-4-methylphenyl)amino]-8-[(3-propoxypiperidin-1-yl)methyl]-6,11-dihydro-5H-pyrido[2,3-b][1,5]benzodiazepin-5-one] | 8.73 | – |
| Cc1ccc(O)cc1Nc1ccnc2c1C(=O)Nc1cc(CNCc3cccc(F)c3)ccc1N2 [Example 120] | 8.83 | – |
| Cc1cc(F)c(Nc2ccnc3c2C(=O)Nc2cc(CN4CC[C@@H](N)C4)ccc2N3)cc1O [Example 216, 8-{[(3R)-3-Aminopyrrolidin-1-yl]methyl}-4-[(2-fluoro-5-hydroxy-4-methylphenyl)amino]-6,11-dihydro-5H-pyrido[2,3-b][1,5]benzodiazepin-5-one] | 8.95 | – |
| Cc1ccc(O)cc1Nc1ccnc2c1C(=O)Nc1cc(CNC3CCN(C)CC3)ccc1N2 [Example 138] | 8.62 | – |
| Cc1cc(F)c(Nc2ccnc3c2C(=O)Nc2cc(CN4C[C@@H](O)[C@@H](O)C4)ccc2N3)cc1O [Example 210] | 8.99 | – |
| Cc1ccc(O)cc1Nc1ccnc2c1C(=O)Nc1cc(CNCC3CCN(C(C)C)C3)ccc1N2 (stereo not shown) [Example 140] | 8.79 | – |
| Cc1cc(F)c(Nc2ccnc3c2C(=O)Nc2cc(CN4CCN5C(=O)C(C)NC(=O)C5C4)ccc2N3)cc1O (racemic) [Example 194, rac-8-({4-[(2-Fluoro-5-hydroxy-4-methylphenyl)amino]-5-oxo-6,11-dihydro-5H-pyrido[2,3-b][1,5]benzodiazepin-8-yl}methyl)-3-methyltetrahydro-2H-pyrazino[1,2-a]pyrazine-1,4(3H,6H)-dione] | 8.72 | – |
| COCCOCCOCCOCCOCCOCCOCCOCCNCc1ccc2c(c1)NC(=O)c1c(Nc3cc(O)c(C)cc3F)ccnc1N2 [Example 185, 4-[(2-Fluoro-5-hydroxy-4-methylphenyl)amino]-8-(2,5,8,11,14,17,20,23-octaoxa-26-azaheptacosan-27-yl)-6,11-dihydro-5H-pyrido[2,3-b][1,5]benzodiazepin-5-one] | 7.60 | – |
| Cc1ccc(O)cc1Nc1ccnc2c1C(=O)Nc1cc(CN[C@H](C)C3CCCCC3)ccc1N2 [Example 102] | 8.80 | – |
| Cc1cc(F)c(Nc2ccnc3c2C(=O)Nc2cc(CN4CCC5(O)CCCCC5C4)ccc2N3)cc1O (stereo not shown) [Example 183, 4-[(2-Fluoro-5-hydroxy-4-methylphenyl)amino]-8-[(4a-hydroxyoctahydroisoquinolin-2(1H)-yl)methyl]-6,11-dihydro-5H-pyrido[2,3-b][1,5]benzodiazepin-5-one] | 8.92 | – |
| Cc1cc(F)c(Nc2ccnc3c2C(=O)Nc2cc(CNC4CCCC4)ccc2N3)cc1O [Example 226, 8-[(Cyclopentylamino)methyl]-4-[(2-fluoro-5-hydroxy-4-methylphenyl)amino]-6,11-dihydro-5H-pyrido[2,3-b][1,5]benzodiazepin-5-one] | 8.96 | – |
| Cc1ccc(O)cc1Nc1ccnc2c1C(=O)Nc1cc(CNCC3CCC(=O)N3C)ccc1N2 (stereo not shown) [Example 137] | 8.77 | – |
| Cc1ccn(CCCNCc2ccc3c(c2)NC(=O)c2c(Nc4cc(O)ccc4C)ccnc2N3)n1 [Example 101] | 8.53 | – |

Now from value to compound, other results behind:

| pIC50 [1] | Structure (SMILES) | further results |
| --- | --- | --- |
| 7.22 | Cc1ccc(O)cc1Nc1ccnc2c1C(=O)Nc1cc(CNc3ccccc3)ccc1N2 [Example 26, 8-Anilinomethyl-4-[(5-hydroxy-2-methylphenyl)amino]-6,11-dihydro-5H-pyrido[2,3-b][1,5]benzodiazepin-5-one] | – |
| 8.43 | Cc1ccc(O)cc1Nc1ccnc2c1C(=O)Nc1cc(CNC3CC3)ccc1N2 [Example 151] | – |
| 9.14 | CCN(CCN)Cc1ccc2c(c1)NC(=O)c1c(Nc3cc(O)c(C)cc3F)ccnc1N2 [Example 200, 8-{[(2-Aminoethyl)(ethyl)amino]methyl}-4-[(2-fluoro-5-hydroxy-4-methylphenyl)amino]-6,11-dihydro-5H-pyrido[2,3-b][1,5]benzodiazepin-5-one] | – |
| 8.26 | Cc1ccc(O)cc1Nc1ccnc2c1C(=O)Nc1cc(CNCCC(=O)N(C)C)ccc1N2 [Example 143] | – |
| 8.45 | Cc1ccc(O)cc1Nc1ccnc2c1C(=O)Nc1cc(CNCC3CC3)ccc1N2 [Example 127] | – |
| 8.42 | COc1cc(O)cc(Nc2ccnc3c2C(=O)Nc2cc(C#N)ccc2N3)c1 [Example 9, 4-[(3-Hydroxy-5-methoxyphenyl)amino]-5-oxo-6,11-dihydro-5H-pyrido[2,3-b][1,5]benzodiazepine-8-carbonitrile] | – |
| 7.74 | COc1ccc(NCc2ccc3c(c2)NC(=O)c2c(Nc4cc(O)ccc4C)ccnc2N3)cc1F [Example 107] | – |
| 7.07 | N#Cc1ccc2c(c1)NC(=O)c1c(Nc3ccc(O)c(O)c3)ccnc1N2 [Example 12, 4-[(3,4-Dihydroxyphenyl)amino]-5-oxo-6,11-dihydro-5H-pyrido[2,3-b][1,5]benzodiazepine-8-carbonitrile] | – |
| 6.06 | CCCc1ccc(Nc2ccnc3c2C(=O)Nc2cc(C#N)ccc2N3)cc1O [Example 2, 4-[(3-Hydroxy-4-propylphenyl)amino]-5-oxo-6,11-dihydro-5H-pyrido[2,3-b][1,5]benzodiazepine-8-carbonitrile] | – |
| 8.46 | CCn1ccc(CNCc2ccc3c(c2)NC(=O)c2c(Nc4cc(O)ccc4C)ccnc2N3)n1 [Example 103] | – |
| 8.47 | Cc1ccc(O)cc1Nc1ccnc2c1C(=O)Nc1cc(CNC(C)C(C)C)ccc1N2 (stereo not shown) [Example 157] | – |
| 8.39 | CC[C@@H](C)[C@@H](CO)NCc1ccc2c(c1)NC(=O)c1c(Nc3cc(O)c(C)cc3F)ccnc1N2 [Example 172, 4-[(2-Fluoro-5-hydroxy-4-methylphenyl)amino]-8-({[(2S,3R)-1-hydroxy-3-methylpentan-2-yl]amino}methyl)-6,11-dihydro-5H-pyrido[2,3-b][1,5]benzodiazepin-5-one] | – |
| 8.49 | Cc1ccc(O)cc1Nc1ccnc2c1C(=O)Nc1cc(CNC(C)CN(C)C)ccc1N2 (stereo not shown) [Example 122] | – |
| 8.13 | Cc1cc(F)c(Nc2ccnc3c2C(=O)Nc2cc(C(N)=O)ccc2N3)cc1O [Example 80, 4-[(2-Fluoro-5-hydroxy-4-methylphenyl)amino]-5-oxo-6,11-dihydro-5H-pyrido[2,3-b][1,5]benzodiazepine-8-carboxamide] | – |
